Measurements as given in patent US10981932B2, “Macrocyclic indole derivatives” (Bayer Aktiengesellschaft, priority 2016, dated 2021).

Tests used:
SUDHL5 [1] = test: Induction of caspase-3/7 activity (Caspase-Glo 3/7), SUDHL5; assay type: cell-based; settings: Homo sapiens, SU-DHL-5, 3 h, caspase-3/7 induction, SUDHL5 cells, 3 h treatment; median
Summary of the method: (§1)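 Caspase-Glo 3/7 luminescence measured after 3 h compound exposure at 37 °C in SUDHL10 and SUDHL5 cells. EC50 values come from background-corrected signals, with curve bottom set to 1 and plateau set to maximal induction by the reference compound.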

SUDHL10 [2] = test: Anti-proliferative effect (CellTiter-Glo, 72 h), SUDHL10; assay type: cell-based; settings: Homo sapiens, SU-DHL10, 72 h, SUDHL10 cells, antiproliferation, 72 h incubation, median, read-out: Antiproli SUDHL10 [M] (median)
Summary of the method: (§2)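 CellTiter-Glo luminescence readout of viability, taken on a time-zero plate at day 0 and on treated plates after 72 h incubation at 37 °C in a humidified incubator. Reagent incubation 10 min before reading.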

OPM2 = test: Anti-proliferative effect (CellTiter-Glo, 72 h), OPM2; assay type: cell-based; settings: Homo sapiens, OPM-2, 72 h, OPM2 cells, median, read-out: IC50 antiproliferation assay OPM2 [M] (median)
Experimental: Assessment of the Anti-Proliferative Effect of Compounds in Different Cell Lines
The impact of compounds on the proliferation of different cell lines was assessed using the CellTiter-Glo® Luminescent Cell Viability reagent from Promega (G7573). Of note, SUDHL10 and SUDHL5 (DLBCL), NCI-H929 (Multiple Myeloma), A2780 (ovarian carcinoma) as well as MV-4-11(AML) cells are sensitive to MCL-1 inhibition.
In parallel, cells were plated in a reference (day 0) plate for time zero determination.
Rim wells were excluded. The cells were incubated for 72 h hours in a humidified incubator at 37° C. The day 0 plate was measured by adding 30 μl/well of CTG solution (CellTiter-Glo® Luminescent Cell Viability reagent, Promega G7573) to time zero wells in the reference plate followed by a 10 minutes incubation and luminescence reading at 0.1 ms, using the PHERAstar FS microplate reader (BMG Labtech).
After 72 h incubation, the treated plates were measured in the same way as the day 0 plate mentioned above.

A2780 = test: Anti-proliferative effect (CellTiter-Glo, 72 h), A2780; assay type: cell-based; settings: Homo sapiens, A2780, 72 h, A2780 cells, median, read-out: IC50 antiproliferation assay A2780 [M] (median)
Summary of the method: as §2

SUDHL10 [3] = test: Induction of caspase-3/7 activity (Caspase-Glo 3/7), SUDHL10; assay type: cell-based; settings: Homo sapiens, SU-DHL10, 3 h, caspase-3/7 induction, SUDHL10 cells, 3 h treatment; median
Summary of the method: as §1

SUDHL10 [4] = test: Induction of cytotoxicity (CellTiter-Glo, 5 h), SUDHL10; settings: Homo sapiens, SU-DHL10, 5 h, read-out: Cytotox SUDHL10 [M] (median), SUDHL10 cells, cytotoxicity induction, CellTiter-Glo, 5 h incubation, median
SUDHL5 [5] = test: Induction of cytotoxicity (CellTiter-Glo, 5 h), SUDHL5; settings: Homo sapiens, SU-DHL-5, 5 h, read-out: Cytotox SUDHL5 [M] (median), SUDHL5 cells, cytotoxicity induction, CellTiter-Glo, 5 h incubation, median
MCL-1 = MCL-1 (Homo sapiens, UniProt Q07820); test: Protein-protein interaction assay MCL-1/Noxa BH3 peptide (MCL-1 assay), TR-FRET; assay type: binding; settings: MBP-MCL-1 / Noxa BH3-derived peptide, median
Summary of the method: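 MBP-MCL-1 (1 nM final) was preincubated 10 min at 22 °C with compounds (11 concentrations, 0.1 nM–20 μM, duplicates) in Tris pH 7 buffer with NaCl, KF, Tween-20, DTT and BGG. After 1 h at 22 °C in the dark plus overnight at 4 °C, anti-MBP Eu-cryptate/streptavidin-XL665 TR-FRET was read; IC50 came from a 4-parameter fit.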

Chain of MCL-1 (Q07820 whole entry): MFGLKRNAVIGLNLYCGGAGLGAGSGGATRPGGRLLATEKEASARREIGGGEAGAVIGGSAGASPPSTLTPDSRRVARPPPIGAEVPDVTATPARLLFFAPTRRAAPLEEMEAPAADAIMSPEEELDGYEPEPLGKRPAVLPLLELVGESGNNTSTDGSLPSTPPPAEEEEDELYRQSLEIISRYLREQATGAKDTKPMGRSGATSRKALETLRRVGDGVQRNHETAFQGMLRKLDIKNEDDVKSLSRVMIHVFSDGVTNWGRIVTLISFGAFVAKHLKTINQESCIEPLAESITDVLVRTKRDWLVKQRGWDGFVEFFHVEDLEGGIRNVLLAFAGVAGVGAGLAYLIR

EC50 (SUDHL5 [1]) [µM]	IC50 (SUDHL10 [2]) [M]	IC50 (A2780) [M]	EC50 (SUDHL10 [3]) [µM]	IC50 (MCL-1) [µM]	Compound	IC50 (OPM2) [M]	IC50 (SUDHL10 [4]) [M]	IC50 (SUDHL5 [5]) [M]
> 33	7.15e-06	3.13e-05	> 33	0.0274	Cc1ccc2cccc(OCCCc3c(C(=O)O)n4c5c(cccc35)-c3c(C)nn(C)c3COCCCC4)c2c1 (racemic) [Example 012, (rac)-1,3-dimethyl-7-{3-[(7-methyl-1-naphthyl)oxy]propyl}-1,10,11,12,13,15-hexahydropyrazolo[4′,3′:9,10][1,6]oxazacycloundecino[8,7,6-hi]indole-8-carboxylic Acid]	2.17e-05	> 3.3e-05	3.14e-05
> 33	2e-05	> 3.3e-05	> 33	0.049	COCCn1nc2c(c1CN1CCOCC1)-c1cccc3c(CCCOc4cccc5ccccc45)c(C(=O)O)n(c13)CCCN(C)C2 (racemic) [Example 056, (rac)-10-(2-methoxyethyl)-7-methyl-11-(morpholin-4-ylmethyl)-1-[3-(naphthalen-1-yloxy)propyl]-4,5,6,7,8,10-hexahydropyrazolo[3′,4′:7,8][1,5]diazecino[9,10,1-hi]indole-2-carboxylic Acid]	> 3.3e-05	> 3.3e-05	> 3.3e-05
> 33	5.38e-06	2.72e-06	> 33	0.0221	Cc1c2c(nn1C)CN(C)CCCCn1c(C(=O)O)c(CCCOc3cccc4ccccc34)c3cccc-2c31 (racemic) [Example 067, (rac)-2,3,14-trimethyl-7-[3-(naphthalen-1-yloxy)propyl]-10,11,12,13,14,15-hexahydro-2H-pyrazolo[3′,4′:8,9][1,6]diazacycloundecino[10,11,1-hi]indole-8-carboxylic Acid]	1.48e-05	> 3.3e-05	> 3.3e-05
> 33	9.32e-06	2.44e-05	> 33	0.0144	CN1CCCCn2c(C(=O)O)c(CCCOc3cccc4ccccc34)c3cccc(c32)-c2cnn(C)c2C1 (racemic) [Example 127, (rac)-1,14-dimethyl-7-[3-(naphthalen-1-yloxy)propyl]-10,11,12,13,14,15-hexahydro-1H-pyrazolo[3′,4′:8,9][1,6]diazacycloundecino[10,11,1-hi]indole-8-carboxylic Acid]	> 3.3e-05	> 3.3e-05	> 3.3e-05
> 33	1.29e-05	3.04e-05	> 33	0.0403	Cn1ncc2c1COCCCCn1c(C(=O)O)c(CCCOc3cccc4ccccc34)c3cccc-2c31 (racemic) [Example 128, (rac)-1-methyl-7-[3-(naphthalen-1-yloxy)propyl]-1,10,11,12,13,15-hexahydropyrazolo[4′,3′:9,10][1,6]oxazacycloundecino[8,7,6-hi]indole-8-carboxylic Acid]	> 3.3e-05	> 3.3e-05	> 3.3e-05
> 33	6.99e-06	1.7e-05	> 33	0.0222	CN1CCCn2c(C(=O)O)c(CCCOc3cccc4ccccc34)c3cccc(c32)-c2c(CNCC(F)(F)F)nn(C)c2C1 (racemic) [Example 129, (rac)-7,9-dimethyl-1-[3-(naphthalen-1-yloxy)propyl]-11-{[(2,2,2-trifluoroethyl)amino]methyl}-4,5,6,7,8,9-hexahydropyrazolo[3′,4′:7,8][1,5]diazecino[9,10,1-hi]indole-2-carboxylic Acid (Racemate)]	> 3.3e-05	> 3.3e-05	> 3.3e-05

More lines, now with the values behind:

Compound	EC50 (SUDHL5 [1]) [µM]	IC50 (SUDHL10 [2]) [M]	IC50 (A2780) [M]	EC50 (SUDHL10 [3]) [µM]	IC50 (MCL-1) [µM]	IC50 (OPM2) [M]	IC50 (SUDHL10 [4]) [M]	IC50 (SUDHL5 [5]) [M]
CN(C)S(=O)(=O)N1CCN(c2ccc(OCc3nn(C)c4c3-c3cccc5c(CCCOc6cccc7ccccc67)c(C(=O)O)n(c35)CCCN(Cc3ccccc3)C4)cc2)CC1 (racemic) [Example 004, (rac)-(7-benzyl-11-({4-[4dimethylsulfamoyl)piperazin-1-yl]phenoxy}methyl)-9-methyl-1-[3-(1-naphthyloxy)propyl]4,5,6,7,8,9-hexahydropyrazolo[3′,4′:7,8][1,5]diazecino[9,10,1-hi]indole-2-carboxylic Acid]	12.5	2.04e-06	7.13e-06	25.8	0.117	1.09e-05	2.57e-05	1.47e-05
Cc1nn(C)c2c1-c1cccc3c(CCCOc4cccc5c4CCCC5)c(C(=O)O)n(c13)CCCOC2 (racemic) [Example 005, (rac)-9,11-dimethyl-1-[3-(5,6,7,8-tetrahydronaphthalen-1-yloxy)propyl]-5,6,8,9-tetrahydro-4H-pyrazolo[4′,3′:8,9][1,5]oxazecino[7,6,5-hi]indole-2-carboxylic Acid]	> 33	> 3.3e-05	> 3.3e-05	> 33	0.066	> 3.3e-05	> 3.3e-05	> 3.3e-05
Cc1cc(OCCCc2c(C(=O)O)n3c4c(cccc24)-c2c(C)nn(C)c2COCCC3)cc(C)c1Cl (racemic) [Example 013, (rac)-1-[3-(4-chloro-3,5-dimethylphenoxy)propyl]-9,11-dimethyl-5,6,8,9-tetrahydro-4H-pyrazolo[4′,3′:8,9][1,5]oxazecino[7,6,5-hi]indole-2-carboxylic Acid]	> 33	4.83e-06	3.27e-05	> 33	0.0345	> 3.3e-05	> 3.3e-05	> 3.3e-05
Cc1nn(C)c2c1-c1cccc3c(CCCOc4ccccc4)c(C(=O)O)n(c13)CCCCOC2 (racemic) [Example 016, (rac)-1,3-dimethyl-7-(3-phenoxypropyl)-1,10,11,12,13,15-hexahydropyrazolo[4′,3′:9,10][1,6]oxazacycloundecino[8,7,6,6-hi]indole-8-carboxylic Acid]	> 33	> 3.3e-05	> 3.3e-05	> 33	0.495	> 3.3e-05	> 3.3e-05	> 3.3e-05
Cn1nc2c(c1CN1CCOCC1)-c1cccc3c(CCCOc4cccc5ccccc45)c(C(=O)O)n(c13)C/C=C\COC2 (racemic) [Example 066, (rac)-(11Z)-2-Methyl-3-(morpholin-4-ylmethyl)-7-[3-(naphthalen-1-yloxy)propyl]-2,10,13,15-tetrahydropyrazolo[4′,3′:9,10][1,6]oxazacycloundecino[8,7,6-hi]indole-8-carboxylic Acid]	> 33	6.96e-06	2.8e-05	29	0.0285	> 3.3e-05	> 3.3e-05	> 3.3e-05
COc1cc2cc(c1)-c1cccc3c(CCCOc4cccc5c4CCCC5)c(C(=O)O)n(c13)CCCCCO2 (racemic) [Example 116, (rac)-12-Methoxy-1-[3-(5,6,7,8-tetrahydronaphthalen-1-yloxy)propyl]-5,6,7,8-tetrahydro-4H-10,14-(metheno)[1,7]oxazacyclotetradecino[9,8,7-hi]indole-2-carboxylic Acid]	> 33	> 3.3e-05	2.21e-05	> 33	8.28	1.79e-05	> 3.3e-05	> 3.3e-05
Cc1ccc2cc1-c1cccc3c(CCCOc4cccc5ccccc45)c(C(=O)O)n(c13)CCOCCO2 (racemic) [Example 117, (rac)-13-Methyl-1-[3-(naphthalen-1-yloxy)propyl]-4,5,7,8-tetrahydro-10,14-(metheno)[1,4,7]dioxazacyclotetradecino[9,8,7-hi]indole-2-carboxylic Acid]	> 33	> 3.3e-05	> 3.3e-05	> 33	0.633	> 3.3e-05	> 3.3e-05	> 3.3e-05
